Assay results: patent publication US7572606B1 (Nereus Pharmaceuticals, Inc., priority 2005, dated 2009)
“And” between values parts separate entries of the source, which are not always exact repeats. Equal entries are not always repeated. Where two headings read alike, the source gives them in different places.

Experiments:
[1] = tested on: HT-29; experiment: Cell growth inhibition, resazurin, 48 h; type: cell-based, human; conditions: HT-29, 48 h drug exposure
Protocol: (§1) RPMI 8226 (CCL-155), HT-29 (HTB-38), and B16-F10 (CRL-6475) cells were purchased from ATCC. RPMI 8226 cells were maintained in RPMI 1640 media supplemented with 10% (v/v) FBS, 2 mM L-glutamine, 1 mM sodium pyruvate and Penicillin/Streptomycin at 100 IU/ml and 100 μg/ml, respectively. HT-29 cells were maintained in McCoys 5A supplemented with 10% (v/v) FBS, 2 mM L-glutamine, 1 mM sodium pyruvate, 1% (v/v) non-essential amino acids, 10 mM HEPES and Penicillin/Streptomycin at 100 IU/ml and 100 μg/ml, respectively. B16-F10 cells were maintained in DMEM supplemented with 10% (v/v) FBS, 2 mM L-glutamine, 10 mM HEPES and Penicillin/Streptomycin at 100 IU/ml and 100 μg/ml, respectively.
(§2) RPMI 8226 cells were seeded at 2×10^4 cells/well in 90 μl RPMI media containing 10% (v/v) FBS or 1% (v/v) FBS into 96 well black-walled, clear-bottom tissue culture plates. […] Formulae II-16, II-17 and Formula II-18 were serially diluted in media containing 1% or 10% FBS and added in triplicate to the test wells. […] The final concentration of Formula II-18 ranged from 2 μM to 630 pM.

[2] = tested on: OVCAR-3; experiment: Cell growth inhibition, resazurin, 48 h; type: cell-based, human; conditions: OVCAR-3, 48 h drug exposure
[3] = target: T1, 20S proteasome chymotrypsin-like activity in PC-3 cells (Homo sapiens, UniProt P28074); experiment: Chymotrypsin-like activity of 20S proteasomes in treated cells; type: cell-based; conditions: PC-3, read-out: % inhibition of the chymotrypsin-like activity of 20S proteasomes in PC-3 cell lysates, 1 hr; for inhibition at 0.01 µM: 10 nM; for inhibition at 0.1 µM: 100 nM; for inhibition at 1 µM: 1,000 nM; for inhibition at 10 µM: 10,000 nM
T1 construct: PC-3 (ATCC, CRL-1435), the human prostate cancer cell line; host or cells: PC-3
T1 sequence (P28074 60-263): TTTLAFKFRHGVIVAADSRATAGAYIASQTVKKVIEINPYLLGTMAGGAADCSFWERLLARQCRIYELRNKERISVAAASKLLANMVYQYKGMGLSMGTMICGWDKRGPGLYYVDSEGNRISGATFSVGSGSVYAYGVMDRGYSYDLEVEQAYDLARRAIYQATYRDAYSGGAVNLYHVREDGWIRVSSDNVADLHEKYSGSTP
Protocol: PC-3 (ATCC, CRL-1435), the human prostate cancer cell line, was cultured in F12K medium supplemented with 2 mM L-glutamine, 100 units/ml penicillin, 100 μg/ml streptomycin and 10% heat inactivated fetal bovine serum at 37° C., 5% CO2 and 95% humidified air. […] DMSO was used as the vehicle control at a final concentration of 0.1%. Following 1 hr incubation of PC-3 cells with the compounds, the cells were washed 3× with ice-cold 1×Dulbecco's Phosphate-Buffered Saline (DPBS, Mediatech, Herndon, Va.). […] Cell debris was pelleted by centrifugation at 14,000 rpm for 10 min, 4° C. and supernatants (=cell lysates) were transferred to a new tube. Protein concentration was determined by the BCA protein assay kit (Pierce Biotechnology, Rockford, Ill.). […] The total amount of protein used for each assay was 20 μg. The final concentration of Suc-LLVY-AMC and DMSO was 20 μM and 0.2%, respectively. Results are presented as the percent inhibition of the 20S proteasome chymotrypsin-like activity relative to the DMSO control.

[4] = tested on: MES-SA; experiment: Cell growth inhibition, resazurin, 48 h; conditions: for EC50: Homo sapiens, 48 h
Protocol: (§3) Concentrations ranging from 6.32 μM to 2 nM were tested for II-2 and II-4.

[5] = tested on: MES-SA/Dx5; experiment: Cell growth inhibition, resazurin, 48 h; conditions: for EC50: Homo sapiens, MES-SA/Dx5, 48 h
Protocol: as §3

[6] = tested on: MDA-MB-231; experiment: Cell growth inhibition, resazurin, 48 h; type: cell-based, human; conditions: MDA-MB-231, 48 h drug exposure
[7] = tested on: PC-3; experiment: Cell growth inhibition, resazurin, 48 h
[8] = tested on: MIA PaCa-2; experiment: Cell growth inhibition, resazurin, 48 h; type: cell-based; conditions: Homo sapiens; MIA PaCa-2, 48 h drug exposure
[9] = tested on: RPMI 8226; experiment: Cell growth inhibition, resazurin, 48 h; conditions: for EC50: Homo sapiens, RPMI-8226, 48 h, RPMI 8226, 48 h drug exposure; for % cytotoxicity: RPMI 8226
Protocol: as §1, §2

[10] = tested on: 60 human tumor cell lines; experiment: NCI screening panel, values over all cell lines; type: cell-based
[11] = tested on: U266; experiment: Cell growth inhibition, resazurin, 48 h; type: cell-based, human; conditions: U266, 48 h drug exposure
[12] = target: T2, chymotrypsin-like activity of rabbit muscle 20S proteasome (Oryctolagus cuniculus, UniProt G1T4Q9); experiment: In vitro inhibition of 20S proteasome, suc-LLVY-AMC
T2 sequence (G1T4Q9 1-263): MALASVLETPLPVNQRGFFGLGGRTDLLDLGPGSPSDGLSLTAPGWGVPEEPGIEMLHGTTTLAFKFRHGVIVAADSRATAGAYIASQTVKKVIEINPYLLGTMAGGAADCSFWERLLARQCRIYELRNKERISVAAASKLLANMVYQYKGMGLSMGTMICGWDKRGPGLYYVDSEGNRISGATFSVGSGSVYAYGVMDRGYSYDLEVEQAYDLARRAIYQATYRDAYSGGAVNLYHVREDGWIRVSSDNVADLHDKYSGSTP

[13] = mean graph midpoint over all cell lines

**Q.** With `CC[C@H]1C(=O)N[C@@]2([C@@H](O)[C@@H]3C=CCCC3)C(=O)O[C@@]12C` [Formula II-17] as the compound, how does the EC50 ([1]; Homo sapiens, read-out: EC50) read?
**A.** Its EC50 is greater than 20000 nM.

**Q.** What about the EC50 ([2]; Homo sapiens, read-out: EC50) of the same compound?
**A.** Its EC50 is greater than 20000 nM.

**Q.** What about the inhibition at 0.01 µM [3] of the same compound?
**A.** Its inhibition at 0.01 µM is 16%.

**Q.** What about the inhibition at 0.1 µM [3] of the same compound?
**A.** Its inhibition at 0.1 µM is 26%.

**Q.** And the inhibition at 1 µM [3]?
**A.** The inhibition at 1 µM was 49%.

**Q.** What about the inhibition at 10 µM [3] of the same compound?
**A.** The inhibition at 10 µM was 79%.

**Q.** What about the EC50 ([4]; 48 h drug exposure) of the same compound?
**A.** The EC50 was 9230 nM.

**Q.** And the EC50 ([5]; MES-SA/Dx5, 48 h drug exposure)?
**A.** The EC50 was 9450 nM.

**Q.** And the EC50 ([6]; Homo sapiens, read-out: EC50)?
**A.** Its EC50 is 5900 ± 601 nM.

**Q.** And the EC50 ([7]; Homo sapiens, PC-3, 48 h)?
**A.** Its EC50 is greater than 20000 nM.

**Q.** `C[C@@]12OC(=O)[C@]1([C@@H](O)[C@@H]1C=CCCC1)NC(=O)[C@@H]2CCCl` [Formula II-16, Salinosporamide A] was tested. Which EC50 [1] did it give?
**A.** The EC50 was 40 ± 26 nM.

**Q.** What about the EC50 ([1]; Homo sapiens, HT-29, 48 h) of the same compound?
**A.** Its EC50 is 47 nM.

**Q.** And the EC50 ([2]; Homo sapiens, OVCAR-3, 48 h)?
**A.** The EC50 was 69 nM.

**Q.** What about the EC50 [2] of the same compound?
**A.** Its EC50 is 49 ± 31 nM.

**Q.** What about the EC50 [8] of the same compound?
**A.** The EC50 was 46 nM.

**Q.** What about the EC50 [9] of the same compound?
**A.** Its EC50 is 8.6 ± 1.9 nM.

**Q.** What about the “% cytotoxicity” value ([9]; listed as II-16) of the same compound?
**A.** The value was 94 ± 0%.

**Q.** What about the “% cytotoxicity” value ([9]; listed as Salinosporamide A) of the same compound?
**A.** Its value is 94 ± 1%.

**Q.** What about the “% cytotoxicity” value [4] of the same compound?
**A.** The value was 94 ± 1%.

**Q.** And the EC50 [4]?
**A.** Its EC50 is 20 ± 5 nM.

**Q.** What about the EC50 [5] of the same compound?
**A.** Its EC50 is 23 ± 1 nM.

**Q.** What about the “% cytotoxicity” value ([5]; MES-SA/Dx5) of the same compound?
**A.** The value was 92 ± 2%.

**Q.** What about the GI50 ([10]; Homo sapiens, read-out: mean GI50 value) of the same compound?
**A.** Its GI50 is less than 10 nM.

**Q.** And the “Deka Log10 G150” value ([10]; log units)?
**A.** The value was 0.00.

**Q.** What about the “Deka Log10 TGI” value ([10]; log units) of the same compound?
**A.** Its value is 1.21.

**Q.** And the “Range Log10 G150” value ([10]; log units)?
**A.** Its value is 0.00.

**Q.** And the “Range Log10 TGI” value ([10]; log units)?
**A.** The value was 4.00.

**Q.** What about the “MG_MID Log10 G150” value [10, 13] of the same compound?
**A.** The value was -8.00 Molar.

**Q.** And the “MG_MID Log10 TGI” value [10, 13]?
**A.** The value was -6.79 Molar.

**Q.** And the EC50 ([11]; Homo sapiens, U-266, 48 h)?
**A.** The EC50 was 4.7 ± 0.7 nM.

**Q.** What about the EC50 ([6]; Homo sapiens, MDA-MB-231, 48 h) of the same compound?
**A.** Its EC50 is 67 nM.

**Q.** And the EC50 [6]?
**A.** Its EC50 is 87 ± 40 nM.

**Q.** And the “% cytotoxicity” value ([7]; PC-3)?
**A.** The value was 88% and 89%.

**Q.** And the EC50 ([7]; PC-3, 48 h drug exposure)?
**A.** The EC50 was 64 ± 26 nM.

**Q.** For `C[C@H]1C(=O)N[C@@]2([C@@H](O)[C@@H]3C=CCCC3)C(=O)O[C@@]12C` [Formula II-20], which inhibition at 0.01 µM [3] is on record?
**A.** Its inhibition at 0.01 µM is 38%.

**Q.** What about the inhibition at 0.1 µM [3] of the same compound?
**A.** The inhibition at 0.1 µM was 57%.

**Q.** What about the inhibition at 1 µM [3] of the same compound?
**A.** The inhibition at 1 µM was 71%.

**Q.** What about the inhibition at 10 µM [3] of the same compound?
**A.** Its inhibition at 10 µM is 90%.

**Q.** And the EC50 [9]?
**A.** The EC50 was 8510 ± 3260 nM.

**Q.** What about the EC50 ([11]; Homo sapiens, U-266, 48 h) of the same compound?
**A.** The EC50 was 310 nM.

**Q.** And the EC50 [11]?
**A.** The EC50 was 442 nM.

**Q.** What about the EC50 [12] of the same compound?
**A.** The EC50 was 2 to 11 nM.

**Q.** And the EC50 ([12]; read-out: EC50 Chymotrypsin-like, purified rabbit 20S proteasome, suc-LLVY-AMC)?
**A.** The EC50 was 7.7 ± 3 nM.
